Results on two molecules are retold here after patent US7939568B2, “Use of a composition comprising vitamin K1 oxide or a derivative thereof for the treatment and/or the prevention of mammal dermatological lesions” (Auriga International S.A., priority 2003, dated 2011).

A short description of data set [1]: Formation of chromophoric group on mixing with retinol. The class given is physicochemical. Conditions: mixing with retinol (or retinol palmitate).
Data set [2] can be described thus: Transformation in presence of light. The class given is physicochemical. An excerpt:
The improved stability of vitamin K1 oxide compared to vitamin K1, reduces also unexpectedly the side effects of a cosmetic composition. […] Such transformation of vitamin K1 oxide is not observed in the presence of light and these side effects are not present when the cosmetic composition according to the invention is applied upon mammal skin.

`CC(=CCC12OC1(C)C(=O)c1ccccc1C2=O)CCCC(C)CCCC(C)CCCC(C)C` (stereo not drawn) [vitamin K1 oxide]: in data set [1], the “formation of chromophoric group” value is reported as “does not allow the formation of chromophoric group”. Also, the “transformation into Menadione (vitamin K3) and 1.4.Naphtoquinone” value in data set [2] is given as “not observed”.
As to `CC1=C(C/C=C(\C)CCC[C@H](C)CCC[C@H](C)CCCC(C)C)C(=O)c2ccccc2C1=O` [vitamin K1, 2-methyl 3-phytyl-1,4-naphtoquinone], in data set [2], the “transformation into Menadione (vitamin K3) and 1.4.Naphtoquinone” value was “transformed into Menadione (vitamin K3) and 1.4.Naphtoquinone”.
